Read-outs that look alike come from different tables or passages of the source.
How the values were obtained:
[1] = system: behavioral toxicity; test: behavioral toxicity, rat; settings: for PI: protective index TD50/ED50; for behavioral toxicity observed: rat (po), 500 mg/kg
[2] = system: maximal electroshock seizure (MES); test: maximal electroshock seizure; format: in vivo, mice; settings: for ED50: Mus musculus, ip, read-out: MES, ED50; for duration of action in the MES model: mice (ip) and rat (po)
[3] = rotorod test for neurological impairment, mice; format: in vivo; settings: male, Carworth Farms No. 1, mouse, in vivo, ip
[4] = system: neurological impairment (rotorod test); test: rotorod test for neurological impairment, mice; format: in vivo; settings: mice, ip; rotorod test
[5] = system: maximal electroshock seizure (MES); settings: mice, ip; cited from earlier work
[6] = system: maximal electroshock seizure (MES); test: maximal electroshock seizure; format: in vivo, rat; settings: for MES, ED50: rat, po
[7] = behavioral toxicity, rat; settings: male, Sprague-Dawley, rat, in vivo, po
[8] = system: subcutaneous Metrazol (scMet) seizure; test: subcutaneous Metrazol; format: in vivo, mice; settings: Mus musculus, ip, read-out: scMet ED50
[9] = system: formalin-induced pain response; settings: 16 mg/kg; cited from earlier work
[10] = system: psychomotor 6 Hz (32 mA) seizure; settings: mice, ip; cited from earlier work
[11] = system: hippocampal kindled seizure; settings: rat; similar screening; cited from earlier work
[12] = system: maximal electroshock seizure (MES); settings: rat, po; cited from earlier work
[13] = system: behavioral toxicity; settings: rat, po; TD50/ED50; cited from earlier work
[14] = system: formalin-induced pain response; test: formalin test, biphasic pain model, mice; format: in vivo; settings: 15 mg/kg; mouse, ip
[15] = system: neurological impairment (rotorod test); settings: mice, ip; TD50/ED50; cited from earlier work

COC[C@@H](NC(C)=O)C(=O)NCc1ccc(OCc2ccccc2F)cc1 [(R)-21, (R)-N-4′-((2″-Fluoro)benzyloxy)benzyl 2-Acetamido-3-methoxypropionamide]
PI ([1]; rat, po): >45

COC[C@@H](NC(C)=O)C(=O)NCc1ccc(Oc2cccc(F)c2)cc1 [(R)-12, (R)-N-4′-((3″-Fluoro)phenoxy)benzyl 2-N-Acetamido-3-methoxypropionamide]
ED50 [2]: < 30 mg/kg

COCC(NCc1ccc(OCc2cccc(F)c2)cc1)C(N)=O (racemic) [(R,S)-74, 2-(4′-((3″-Fluoro)benzyloxy)benzyl)amino-3-methoxypropionamide]
ED50 [2]: 30 to 100 mg/kg

COC[C@@H](NC(C)=O)C(=O)NCc1ccc(COc2cccc(F)c2)cc1 [(R)-16, (R)-N-4′-(((3″-Fluoro)phenoxy)methyl)benzyl 2-Acetamido-3-methoxypropionamide]
PI ([1]; rat, po): >21

CC(=O)N[C@@H](C)C(=O)NCc1ccc(OCc2cccc(F)c2)cc1 [(S)-6, (S)-N-4′-((3″-Fluoro)benzyloxy)benzyl 2-Acetamidopropionamide]
TD50 [3]: > 300 mg/kg

CC(=O)N[C@H](C)C(=O)NCc1ccc(OCc2cccc(F)c2)cc1 [(R)-6, (R)-N-4′-((3″-Fluoro)benzyloxy)benzyl 2-Acetamido-propionamide]
duration of action in the MES model [2]: extended duration of action | PI ([1]; rat, po): >16

COC[C@H](NC(C)=O)C(=O)NCc1ccc(OCc2cccc(F)c2)cc1 [(S)-10, (S)-N-4′-((3″-Fluoro)benzyloxy)benzyl 2-Acetamido-3-methoxypropionamide]
ED50 [2]: > 300 mg/kg | Tox, TD50 [4]: >300 mg/kg

C[C@@H](NCc1ccc(OCc2cccc(F)c2)cc1)C(N)=O [(R)-4]
MES, ED50 [5]: 7.2 (5.9–8.9) mg/kg

CC(=O)NC(C(=O)NCc1ccc(OCc2cccc(F)c2)cc1)c1ccccn1 (racemic) [(R,S)-9, N-4′-((3″-Fluoro)benzyloxy)benzyl 2-Acetamido-2-(pyridin-2-yl)acetamide]
Tox, TD50 ([1]; rat, po, behavioral toxicity): >30 [4] mg/kg | MES, ED50 [6]: >30 [4] mg/kg

COC[C@@H](NC(C)=O)C(=O)NCc1ccc(OCc2ccccc2)cc1 [(R)-20, (R)-N-4′-(Benzyloxy)benzyl 2-N-Acetamido-3-methoxypropionamide]
ED50 [2]: < 3 mg/kg | TD50 [7]: > 10 mg/kg

COC[C@@H](NC(C)=O)C(=O)NCc1ccc(C#Cc2cccc(F)c2)cc1 [(R)-15, (R)-N-4′-(((3″-Fluoro)phenyl)ethynyl)benzyl 2-Acetamido-3-methoxypropionamide]
duration of action in the MES model [2]: extended duration of action | duration of seizure protection ([6]; MES test, rat (po)): extended for the entire 4 h testing period | MES, ED50 [6]: 1.4 to 2.4 mg/kg

NC(=O)C(NCc1ccc(OCc2cccc(F)c2)cc1)c1ccco1.O=C(O)C(=O)O (racemic) [(R,S)-75, 2-(4′-((3″-Fluoro)benzyloxy)benzyl)amino-2-(furan-2-yl)acetamide Oxalate]
ED50 [2]: 10 to 30 mg/kg | ED50 [8]: 100 to 300 mg/kg

C[C@H](NCc1ccc(OCc2cccc(F)c2)cc1)C(N)=O [(S)-4, Safinamide]
MES, ED50 [5]: 8.0 (7.0–9.1) mg/kg

CC(=O)NCC(=O)NCc1ccc(OCc2cccc(F)c2)cc1 [compound 5, N-4′-((3″-Fluoro)benzyloxy)benzyl 2-Acetamidoacetamide]
behavioral toxicity observed [1]: no apparent neurological toxicity | PI ([1]; rat, po): >16

COC[C@@H](NC(C)=O)C(=O)NCc1ccccc1 [(R)-3, Lacosamide]
reduction in pain, formalin model [9]: comparable reduction in pain was observed only in the late phase | 6 Hz (32 mA) ED50 [10]: 10 mg/kg | hippocampal kindled seizure test ED50 [11]: 14 mg/kg

COC[C@@H](NC(C)=O)C(=O)NCc1ccc(-c2cccc(F)c2)cc1 [(R)-11, (R)-N-(3″-Fluorobiphenyl-4-yl)methyl 2-Acetamido-3-methoxypropionamide]
behavioral toxicity observed [1]: no evidence of behavioral toxicity | MES, ED50 [6]: 1.4 to 2.4 mg/kg

COC[C@@H](NC(C)=O)C(=O)NCc1ccc(-c2ccccc2)cc1 [(R)-73, (R)-N-(biphenyl-4-yl)methyl 2-acetamido-3-methoxypropionamide]
MES, ED50 [12]: 2.0 mg/kg

O=C1NC(=O)C(c2ccccc2)(c2ccccc2)N1 [phenytoin]
PI [13]: > 100

COC[C@@H](NC(C)=O)C(=O)NCc1ccc(OCc2ccc(F)cc2)cc1 [(R)-22, (R)-N-4′-((4″-Fluoro)benzyloxy)benzyl 2-Acetamido-3-methoxypropionamide]
PI ([1]; rat, po): >86

COC[C@@H](NC(C)=O)C(=O)NCc1ccc(OCc2cccc(F)c2)cc1 [(R)-10, (R)-N-4′-((3″-Fluoro)benzyloxy)benzyl 2-Acetamido-3-methoxypropionamide]
pain responses in the acute and the chronic inflammatory phases [14]: reduced pain responses | PI ([1]; rat, po): >36

CCCC(CCC)C(=O)[O-].[Na+] [valproate]
PI [15]: 1.6 | PI [13]: 0.6
